Laboratory results: patent US20260008787A1, “FUSED RING KRAS INHIBITORS FOR TREATING DISEASE” (BLOSSOMHILL THERAPEUTICS, INC., priority 2022, published 2026)

Key:
GP2D (KRAS G12D) = assay: Cell proliferation assay (CellTiter-Glo, 72 hours), GP2D; type: cell-based; conditions: GP2d, 72 h, 384-well, CellTiter-Glo 2.0
Description: (§1) Two thousand KRAS mutant cells per well were seeded in 384-well white plate and then treated with indicated compounds for 72 hours at 37° C. and 5% CO2. Cell proliferation was measured using CellTiter-Glo 2.0 luciferase-based ATP detection assay (Promega, Madison, WI) following the manufacturer's protocol. IC50 values were determined using Prism software (GraphPad Software, San Diego, CA).

SW620 (KRAS G12V) = assay: Cell proliferation assay (CellTiter-Glo, 72 hours), SW620; type: cell-based; conditions: Homo sapiens, SW-620, 72 h, 384-well, CellTiter-Glo 2.0
Description: as §1

AGS (G12D) = assay: Cell proliferation assay (CellTiter-Glo, 72 hours), AGS; type: cell-based; conditions: 72 h, 384-well, CellTiter-Glo 2.0
Description: as §1

KRAS G12V = KRAS G12V (Homo sapiens, UniProt P01116, G12V); assay: biochemical
Chain of KRAS G12V (P01116 1-188 isoform P01116-2 G12V): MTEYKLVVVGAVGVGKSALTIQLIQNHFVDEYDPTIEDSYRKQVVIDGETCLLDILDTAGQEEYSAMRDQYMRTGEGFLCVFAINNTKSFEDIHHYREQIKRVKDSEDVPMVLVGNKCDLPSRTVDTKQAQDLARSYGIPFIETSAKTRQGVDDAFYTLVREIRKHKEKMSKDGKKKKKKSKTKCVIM

KRAS G12D = KRAS G12D (Homo sapiens, UniProt P01116, G12D); assay: biochemical
Chain of KRAS G12D (P01116 1-188 isoform P01116-2 G12D): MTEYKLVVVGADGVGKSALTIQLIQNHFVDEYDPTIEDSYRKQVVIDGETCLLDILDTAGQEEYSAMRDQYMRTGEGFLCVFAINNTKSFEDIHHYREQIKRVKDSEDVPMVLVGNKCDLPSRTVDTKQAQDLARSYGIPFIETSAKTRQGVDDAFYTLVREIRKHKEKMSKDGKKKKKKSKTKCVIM

Row | Compound | IC50 (GP2D (KRAS G12D)) | IC50 (SW620 (KRAS G12V)) | IC50 (AGS (G12D)) | IC50 (KRAS G12V) | IC50 (KRAS G12D)
1 | C#Cc1c(F)ccc2cc(O)cc(-c3nc4c5c(nc(OCC67CCCN6C/C(=C/F)C7)nc5c3F)N3CCCC[C@H]3CO4)c12 (stereo partly drawn) [Example 79, 5-ethynyl-6-fluoro-4-[(8aS)-4-fluoro-2-{[(2E)-2-(fluoromethylidene)tetrahydro-1H-pyrrolizin-7a(5H)-yl]methoxy}-8,8a,9,10,11,12-hexahydro-7-oxa-1,3,6,12a-tetraazabenzo[4,5]cyclohepta[1,2,3-de]naphthalen-5-yl]naphthalen-2-ol] | 2.26 nM | 11.2 nM | 3.33 nM | 1.69 nM | 1.65 nM
2 | C#Cc1c(F)ccc2cc(O)cc(-c3nc4c5c(nc(OC[C@@]67CCCN6C[C@H](F)C7)nc5c3F)NCCO4)c12 [Example 82, 5-ethynyl-6-fluoro-4-(4-fluoro-2-{[(2R,7aS)-2-fluorotetrahydro-1H-pyrrolizin-7a(5H)-yl]methoxy}-9,10-dihydro-8H-7-oxa-1,3,6,10-tetraazacyclohepta[1,2,3-de]naphthalen-5-yl)naphthalen-2-ol] | 470 nM | > 3000 nM | 1440 nM | 2.79 nM | 2.64 nM
3 | N#Cc1c(N)sc2c(F)ccc(-c3nc4c5c(nc(OC[C@@]67CCCN6C[C@H](F)C7)nc5c3F)N3CCCC[C@H]3CO4)c12 [Example 85, 2-amino-7-fluoro-4-[(8aS)-4-fluoro-2-{[(2R,7aS)-2-fluorotetrahydro-1H-pyrrolizin-7a(5H)-yl]methoxy}-8,8a,9,10,11,12-hexahydro-7-oxa-1,3,6,12a-tetraazabenzo[4,5]cyclohepta[1,2,3-de]naphthalen-5-yl]-1-benzothiophene-3-carbonitrile] | 143 nM | 820 nM | 631 nM | 2.17 nM | 2.35 nM
4 | C#Cc1c(F)ccc2cc(F)cc(-c3nc4c5c(nc(OC[C@@]67CCCN6C[C@H](F)C7)nc5c3F)N3CCCC[C@H]3CO4)c12 [Example 89, (7S)-12-(8-ethynyl-3,7-difluoro-1-naphthyl)-13-fluoro-16-[[(2R,8S)-2-fluoro-1,2,3,5,6,7-hexahydropyrrolizin-8-yl]methoxy]-9-oxa-2,11,15,17-tetrazatetracyclo[8.7.1.02,7.014,18]octadeca-1 (17),10 (18),11,13,15-pentaene] | 1170 nM | > 3000 nM | > 3000 nM | 4.2 nM | 3.93 nM
5 | C#Cc1c(F)ccc2cc(O)cc(-c3nc4c5c(nc(OC[C@@]67CCCN6C[C@H](F)C7)nc5c3F)N(C)C3(CC3)CO4)c12 [Example 93] | 140 nM | 981 nM | 560 nM | 1.55 nM | 1.99 nM
6 | C#Cc1c(F)ccc2cc(O)cc(-c3nc4c5c(nc(OC[C@@]67CCCN6C[C@H](F)C7)nc5c3F)N(C)[C@@H](CC)CO4)c12 [Example 96, 4-[(9S)-9-ethyl-4-fluoro-2-{[(2R,7aS)-2-fluorotetrahydro-1H-pyrrolizin-7a(5H)-yl]methoxy}-10-methyl-9,10-dihydro-8H-7-oxa-1,3,6,10-tetraazacyclohepta[1,2,3-de]naphthalen-5-yl]-5-ethynyl-6-fluoronaphthalen-2-ol] | 16.8 nM | 92.6 nM | 82.9 nM | 2.46 nM | 2.39 nM
7 | CCc1c(F)ccc2cc(O)cc(-c3nc4c5c(nc(OC[C@@]67CCCN6C[C@H](F)C7)nc5c3F)N(C)[C@@H](CC)CO4)c12 [Example 99] | 22.4 nM | 96.8 nM | 86.3 nM | 1.02 nM | 0.85 nM
8 | C#Cc1c(F)ccc2cc(O)cc(-c3nc4c5c(nc(OC[C@@]67CCCN6C[C@H](F)C7)nc5c3F)N3CCCC(O4)C3CO)c12 (stereo partly shown) [Example 104] | 188 nM | 903 nM | 666 nM | 9.01 nM | 7.51 nM
